In patent publication US9433663B2, “Mobilization of hematopoietic stem cells” (Children's Hospital Medical Center, priority 2008, dated 2016):

Legend:
Cdc42 = Cdc42 (Homo sapiens, UniProt P60953); assay: Rho GTPase effector pulldown in human CD34+ umbilical cord blood cells, Cdc42; assay type: cell-based; design: endogenous in cells; host or cells: human CD34+ umbilical cord blood cells (HCB); details: human CD34^+ HCBs
Protocol: (§1) To begin to study potential utility of CASIN in human hematopoietic stem cell mobilization, a series of cellular assays were carried out to determine the effects on human CD34^+ umbilical cord blood cells (HCBs). […] The effects of CASIN on human hematopoietic cell mobilization was therefore tested using a well established preclinical in vivo model (NOD/SCID-Hcb) of human hematopoietic function, where fresh CD34^+ hCB cells were transplanted into sub-lethally irradiated NOD/SCIDs by intrafemoral injection, and repopulated and maintained human hematopoietic reconstitution in the bone marrow of NOD/SCID recipient mice (FIG. 9b, FIG. 11) (Larochelle, A. et al. Nat Med 2, 1329-1337 (1996); Bhatia, M., et al. Proc Natl Acad Sci USA 94, 5320-5325 (1997)). Intravenous injections of CASIN were applied when human cells were well engrafted in the NOD/SCID recipients.
To analyze the effects of CASIN on the formation of active GTP-bound Cdc42, RhoA, and Rac1, effector pulldown assays were carried out as described previously. Cdc42GAP^−/− MEF, LDBM, CD34^+ hCB cells were treated with CASIN at doses of 5-20 μM in parallel with vehicle control for 2 hrs after overnight starvation, and stimulated with cytokines subsequently. […]

[1] = test system: human CD34^+ umbilical cord blood cells; assay: migration of human CD34+ HCB cells; assay type: cell-based; details: 5 μM
Protocol: FIG. 4C. relative migration of human CD34^+ cord blood cells in the presence of CASIN at dose of 5 μM in comparison to that of control.
as §1

[2] = test system: human CD45^+ hematopoietic cells; assay: mobilization of human CD45+ cells in NOD/SCID-hCB model; assay type: in vivo, NOD/SCID mice xenografted with human CD34^+ hCB cells; details: intravenous injection, by 20 min post administration
Protocol: as §1
C57BL/6, NOD/SCID, NOD/SCID-SGM3 and NOD/SCIDγC−/− (NOG) were in house bred in the animal barrier facility of Cincinnati Children's Hospital Medical Center (CCHMC) and used at the age of 6-8 weeks old. Cultured N-RasMA93 cells were injected into NOD/SCIDγC−/− mice by tail vein. Freshly thawed CD34^+ hCB cells were transplanted into NOD/SCID mice by intrafemoral injection.

[3] = test system: other Rho GTPases and Ras; assay: Example 7 effector pull-down in LDBM and HCB cells, other Rho GTPases and Ras; assay type: cell-based, murine LDBM and human HCB cells
Protocol: To exclude the inhibitory effect of CASIN on other Rac isoforms, Rho GTPases, and Ras, broader effector pull-down experiments are performed on these possible candidates with gradient doses of CASIN in LDBM and HCB cells as previously described. In addition, CASIN has been indicated as a noncovalent and reversible inhibitor in Xenopus egg extract. To confirm it, reversibility is monitored in this set of effector pull-down experiments. Four treatment groups are divided for both LDBM and HCB cells: (1) Serum starvation 20 h; (2) Serum starvation 20 h+growth factors stimulation; (3) Serum starvation 20 h+CASIN treatment (doses: 1, 2.5, 5, and 10 μM) 3 h+growth factor stimulation; (4) Serum starvation 20 h+CASIN treatment (doses: 1, 2.5, 5, and 10 μM) 3 h+wash the cells, and culture for another 3 h for recovery+growth factors stimulation. […] Bound proteins are analyzed by immunoblotting with respective antibodies (BD Biosciences). Furthermore, changes of downstream targets of Cdc42, Rac, and Rho under the four treatment groups are assessed. Phosphorylation status of PAK1, WASP (effectors of Cdc42), WAVE (effector of Rac), and ROCK (effector of Rho) are monitored by western blots using respective antibodies.

RhoA = molecular target: T1, RhoA (Mus musculus, UniProt Q9QUI0); assay: Rho GTPase effector pull-down in murine LDBM cells, RhoA; assay type: cell-based; details: parallel pull-down assay
T1 construct: endogenous in cells; host or cells: murine LDBM cells
T1 sequence (Q9QUI0 whole entry): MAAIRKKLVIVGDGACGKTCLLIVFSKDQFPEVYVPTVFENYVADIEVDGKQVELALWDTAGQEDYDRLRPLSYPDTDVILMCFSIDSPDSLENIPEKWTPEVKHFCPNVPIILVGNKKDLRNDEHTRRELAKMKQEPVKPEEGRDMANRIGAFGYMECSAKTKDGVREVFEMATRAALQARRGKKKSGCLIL
Protocol: To analyze the effects of CASIN on the formation of active GTP-bound Cdc42, RhoA, and Rac1, effector pulldown assays were carried out as described previously. Cdc42GAP^−/− MEF, LDBM, CD34^+ hCB cells were treated with CASIN at doses of 5-20 μM in parallel with vehicle control for 2 hrs after overnight starvation, and stimulated with cytokines subsequently. And then cells were lysed in a buffer containing 20 mM Tris-HCL (pH 7.6), 100 mM NaCl, 1% Triton X-100, 10 mM MgCl2, 2 mM NaF, and Protease inhibitor cocktail (Roche Diagnostics). Lysates were incubated with GST-P21-binding domain of PAK1 for RAC1-GTP and Cdc42-GTP, and GST-RBD domain of Rhotekin for RhoA-GTP respectively. Both bound- and unbound-form of Rho GTPases were probed by immunoblotting with antibodies specific for Rac1 (BD biosciences), Cdc42 (BD biosciences), and RhoA (cell signaling).

[4] = test system: primitive human hematopoietic cells (CD45+CD34+CD38−); assay: Example 7 mobilization of human HSC/Ps in NOD-SCID model; assay type: in vivo, NOD-SCID mice transplanted with CD34+ HCB cells; details: flow cytometry
Source text: The mobilization effects of CASIN on human HSC/Ps using an established preclinical in vivo mouse model are examined. […] This reconstituting population of human hematopoietic cells is operationally defined as SCID-repopulating cells (SRCs), and accordingly represents candidate human HSCs.
Primitive CD34+ human neonatal umbilical cord blood cells are transplanted into sublethally irradiated recipients. Around 10-week posttransplantation, human multilineage repopulating capacity of transplanted HSCs is examined using flow cytometry for surface markers representing human lymphoid (CD19, CD20), myeloid (CD15, CD33) and primitive (CD34, CD38) hematopoietic subsets. […] To further characterize the effect of CASIN on mobilization of primitive human HSC mobilization, progenitor potential is determined using functional clonogenic assays of hematopoietic colony-forming units (CFUs) derived from HPCs33. Numbers of CFUs are counted posinjection of CASIN treatment, in comparison with control medium and G-CSF administration.

[5] = test system: human CD34^+ umbilical cord blood cells; assay: adhesion of human CD34+ HCB cells; assay type: cell-based; details: 5 μM
Protocol: FIG. 4B. Relative adhesion of CD34^+ HCB cells in the presence of CASIN at dose of 5 μM in comparison to that of control.
as §1

Chain of Cdc42 (P60953 whole entry): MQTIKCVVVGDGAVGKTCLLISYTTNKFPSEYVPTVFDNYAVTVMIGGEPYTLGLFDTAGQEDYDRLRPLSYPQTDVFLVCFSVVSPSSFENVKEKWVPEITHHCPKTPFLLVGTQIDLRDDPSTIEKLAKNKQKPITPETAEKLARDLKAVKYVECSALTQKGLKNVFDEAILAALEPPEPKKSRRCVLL

With OCCNC1CCCc2c1[nH]c1ccc(-c3ccccc3)cc21 (stereo not shown) [CASIN] the Cdc42 activity (Cdc42) was “specifically inhibit”, the “migration activity of human progenitors” value [1] was “significantly dampened” and the “human CD45^+ hematopoietic cells mobilized to the peripheral blood” value [2] was “significant amount of human CD45^+ hematopoietic cells mobilized to the peripheral blood”. For the same compound, the “activities of other Rho GTPases and Ras” value [3] was “without affecting”, the RhoA activity (RhoA) was “no effects” and the “frequency and total number of primitive human hematopoietic cells (CD45+CD34+CD38−) in peripheral blood” value [4] was “increases significantly”. For the same compound, the “adhesion activity of human progenitors” value [5] was “significantly dampened”.
